From the NIST ThermoML archive (doi:10.1016/j.fluid.2007.04.023)

Conditions: Liquid, Vibrating tube method

CCCCCCCCCCCCC [tridecane]
Conditions | mass density [kg/m3]
313.01 K, 1023 kPa | 743.49
313.01 K, 2030 kPa | 744.27
313.01 K, 3025 kPa | 745.05
313.01 K, 4027 kPa | 745.74
313.01 K, 5014 kPa | 746.51
313.01 K, 6024 kPa | 747.18
313.01 K, 7021 kPa | 747.95
313.01 K, 8036 kPa | 748.69
313.01 K, 9019 kPa | 749.41
313.01 K, 10018 kPa | 750.14
313.01 K, 11030 kPa | 750.86
313.01 K, 12006 kPa | 751.51
313.01 K, 13017 kPa | 752.24
313.01 K, 14035 kPa | 752.95
313.01 K, 15021 kPa | 753.59
313.01 K, 16019 kPa | 754.27
313.01 K, 17019 kPa | 754.94
313.01 K, 18024 kPa | 755.61
313.01 K, 19025 kPa | 756.27
313.01 K, 20043 kPa | 756.91
313.01 K, 21011 kPa | 757.52
313.01 K, 22020 kPa | 758.16
313.01 K, 23018 kPa | 758.79
313.01 K, 24004 kPa | 759.44
313.01 K, 25036 kPa | 760.12
322.92 K, 1017 kPa | 736.15
322.92 K, 2006 kPa | 736.94
322.92 K, 3025 kPa | 737.83
322.92 K, 4021 kPa | 738.62
322.92 K, 5021 kPa | 739.42
322.92 K, 6043 kPa | 740.18
322.92 K, 7018 kPa | 740.9
322.92 K, 8022 kPa | 741.72
322.92 K, 9008 kPa | 742.44
322.92 K, 10012 kPa | 743.18
322.92 K, 11015 kPa | 743.93
322.92 K, 12006 kPa | 744.71
322.92 K, 13030 kPa | 745.38
322.92 K, 14010 kPa | 746.12
322.92 K, 15026 kPa | 746.81
322.92 K, 16024 kPa | 747.53
322.92 K, 17016 kPa | 748.22
322.92 K, 18010 kPa | 748.89
322.92 K, 19007 kPa | 749.56
322.92 K, 20023 kPa | 750.22
322.92 K, 21020 kPa | 750.92
322.92 K, 22010 kPa | 751.57
322.92 K, 23040 kPa | 752.26
322.92 K, 24006 kPa | 752.95
322.92 K, 25006 kPa | 753.6
332.78 K, 1015 kPa | 729.19
332.78 K, 2020 kPa | 730.06
332.78 K, 3022 kPa | 730.83
332.78 K, 4016 kPa | 731.63
332.78 K, 5020 kPa | 732.47
332.78 K, 6016 kPa | 733.27
332.78 K, 7006 kPa | 734.09
332.78 K, 8018 kPa | 734.9
332.78 K, 9013 kPa | 735.71
332.78 K, 10008 kPa | 736.52
332.78 K, 11016 kPa | 737.3
332.78 K, 12007 kPa | 738.05
332.78 K, 13012 kPa | 738.79
332.78 K, 14021 kPa | 739.55
332.78 K, 15011 kPa | 740.26
332.78 K, 16020 kPa | 741.03
332.78 K, 17015 kPa | 741.74
332.78 K, 18005 kPa | 742.47
332.78 K, 19017 kPa | 743.19
332.78 K, 20014 kPa | 743.89
332.78 K, 21016 kPa | 744.66
332.78 K, 22046 kPa | 745.35
332.78 K, 22994 kPa | 745.97
332.78 K, 24032 kPa | 746.67
332.78 K, 25030 kPa | 747.38
342.64 K, 1022 kPa | 722.03
342.64 K, 2014 kPa | 722.93
342.64 K, 3025 kPa | 723.84
342.64 K, 4021 kPa | 724.7
342.64 K, 5020 kPa | 725.59
342.64 K, 6020 kPa | 726.44
342.64 K, 7008 kPa | 727.27
342.64 K, 8026 kPa | 728.15
342.64 K, 9007 kPa | 728.98
342.64 K, 10010 kPa | 729.81
342.64 K, 11012 kPa | 730.63
342.64 K, 12014 kPa | 731.46
342.64 K, 13011 kPa | 732.27
342.64 K, 14008 kPa | 733.03
342.64 K, 15029 kPa | 733.84
342.64 K, 16006 kPa | 734.58
342.64 K, 17016 kPa | 735.35
342.64 K, 18019 kPa | 736.09
342.64 K, 19006 kPa | 736.85
342.64 K, 20001 kPa | 737.59
342.64 K, 21023 kPa | 738.34
342.64 K, 22008 kPa | 739.06
342.64 K, 23005 kPa | 739.79
342.64 K, 24032 kPa | 740.52
342.64 K, 25024 kPa | 741.14
352.47 K, 1013 kPa | 714.88
352.47 K, 2022 kPa | 715.88
352.47 K, 3010 kPa | 716.8
352.47 K, 4020 kPa | 717.71
352.47 K, 5019 kPa | 718.65
352.47 K, 6011 kPa | 719.55
352.47 K, 7017 kPa | 720.47
352.47 K, 8014 kPa | 721.35
352.47 K, 9022 kPa | 722.24
352.47 K, 10031 kPa | 723.11
352.47 K, 11010 kPa | 723.98
352.47 K, 12003 kPa | 724.82
352.47 K, 13024 kPa | 725.71
352.47 K, 14013 kPa | 726.54
352.47 K, 15007 kPa | 727.34
352.47 K, 16016 kPa | 728.16
352.47 K, 17007 kPa | 728.94
352.47 K, 18020 kPa | 729.77
352.47 K, 19011 kPa | 730.53
352.47 K, 20013 kPa | 731.29
352.47 K, 21032 kPa | 732.07
352.47 K, 22020 kPa | 732.84
352.47 K, 23020 kPa | 733.6
352.47 K, 24021 kPa | 734.36
352.47 K, 25024 kPa | 735.14
362.25 K, 1020 kPa | 707.72
362.25 K, 2026 kPa | 708.74
362.25 K, 3018 kPa | 709.77
362.25 K, 4006 kPa | 710.71
362.25 K, 5021 kPa | 711.73
362.25 K, 6019 kPa | 712.7
362.25 K, 7029 kPa | 713.67
362.25 K, 8017 kPa | 714.54
362.25 K, 9011 kPa | 715.51
362.25 K, 10011 kPa | 716.42
362.25 K, 11021 kPa | 717.35
362.25 K, 12018 kPa | 718.24
362.25 K, 13014 kPa | 719.11
362.25 K, 14000 kPa | 719.97
362.25 K, 15017 kPa | 720.85
362.25 K, 16026 kPa | 721.7
362.25 K, 17019 kPa | 722.52
362.25 K, 18034 kPa | 723.36
362.25 K, 19016 kPa | 724.17
362.25 K, 20004 kPa | 725
362.25 K, 21015 kPa | 725.8
362.25 K, 22022 kPa | 726.63
362.25 K, 23008 kPa | 727.42
362.25 K, 24034 kPa | 728.22
362.25 K, 25010 kPa | 729.02
